In US9969758B2, “Antimicrobial compounds” (BIOMERIEUX, priority 2014, dated 2018):
Values after ≈ are worked out from the molar mass of the structure shown.

How the values were obtained:
Assay in all cases: MIC by agar dilution
[1] = test system: E. cloacae (27); format: cell-based, Enterobacter cloacae
How it was run: (§1)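 Agar dilution on peptone-free medium with 2% lysed horse blood, NAD and hemin (25.0 μg/mL each), compounds 0.0031 to 8.0 μg/mL; inoculum 10 000 CFU/spot, 22 h at 37° C. Fosfomycin tested in IsoSensitest medium plus 25.0 μg/mL glucose-6-phosphate; at least two replicates.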

[2] = test system: E. aerogenes (n=1); format: cell-based, Enterobacter aerogenes
Text: (§2) Bacterial isolates. […] These included Citrobacter freundii (n=5), other species of Citrobacter (n=4), Enterobacter aerogenes (n=1), Enterobacter cloacae (n=27), Escherichia coli (n=53), Klebsiella oxytoca (n=5), Klebsiella pneumoniae (n=87), Kluyvera spp (n=1), Proteus mirabilis (n=8), Providencia rettgeri (n=2), Salmonella spp (n=3), and Serratia marcescens (n=1). Among these 197 isolates, there were 128 (65%) carbapenemase producers, including; 87 with NDM-1, 9 with IMP, 11 with KPC, 14 with OXA-48 and 7 with VIM. The majority of the carbapenemase producers jointly produced broad-spectrum β-lactamases (BSBL) or cephalosporinases (AmpC β-lactamases), but the latter are not documented for the sake of clarity.
(§3) Determining the minimum inhibitory concentrations (MIC). All the MICs were determined using an agar dilution method. This required use of a medium without a defined antagonist (peptone-free), prepared as described previously with the inclusion of 2% horse blood lysed with saponin, 25.0 μg/mL of NAD and 25.0 μg/mL of hemin [17]. […] The MICs of fosfomycin were determined by the same method, except that the IsoSensitest medium (Oxoid, Basingstoke, United Kingdom) was used, plus 25.0 μg/mL of glucose-6-phosphate (Sigma, Poole, United Kingdom) and an extended range of fosfomycin concentrations. […]

[3] = test system: carbapenemase-producing Enterobacteriaceae; format: cell-based
How it was run: as §1

[4] = test system: Enterobacteriaceae (197); format: cell-based; conditions: Enterobacteriaceae (197)
How it was run: as §1

[5] = test system: Enterobacteriaceae with a broad-spectrum β-lactamase; format: cell-based
How it was run: as §1

[6] = test system: Citrobacter (n=9); format: cell-based
How it was run: as §1

[7] = test system: Kluyvera sp. (n=1); format: cell-based, Kluyvera spp
Text: as §2, §3

[8] = test system: AmpC (22); format: cell-based, Enterobacteriaceae
How it was run: as §1

[9] = test system: K. oxytoca; format: cell-based, Klebsiella oxytoca; conditions: Klebsiella oxytoca; one of the five isolates of K. oxytoca
Text: as §2, §3

[10] = test system: Salmonella isolates; format: cell-based, Salmonella spp; conditions: three Salmonella isolates; read-out: MICs
Text: as §2, §3

[11] = test system: All Enterococci (50); format: cell-based; conditions: All Enterococci (50)
How it was run: (§4)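 Agar dilution in peptone-free medium with lysed horse blood, NAD and hemin; compounds at 0.0031–8.0 μg/mL (0.016–32 μg/mL for Gram-positives). Inoculum 10 000 CFU/spot, 22 h at 37 °C; fosfomycin tested in IsoSensitest plus glucose-6-phosphate. Clinical and control isolates, at least two independent replicates.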

[12] = test system: methicillin-sensitive Staphylococcus aureus; format: cell-based; conditions: MSSA (13)
How it was run: as §4

[13] = test system: glycopeptide-resistant enterococci; format: cell-based
How it was run: as §4

[14] = test system: methicillin-resistant Staphylococcus aureus; format: cell-based
How it was run: as §4

[15] = test system: E. faecalis (11); format: cell-based, Enterococcus faecalis; conditions: Enterococcus faecalis, E. faecalis (11)
How it was run: as §4

[16] = test system: S. marcescens (n=1); format: cell-based, Serratia marcescens
Text: as §2, §3

[17] = test system: E. faecium (34); format: cell-based, Enterococcus faecium
How it was run: as §4

[18] = test system: E. coli (53); format: cell-based, Escherichia coli
How it was run: as §1

[19] = test system: All S. aureus (50); format: cell-based, Staphylococcus aureus; conditions: All S. aureus (50)
How it was run: as §4

[20] = read-out: Modal MIC (most frequent MIC)
[21] = Staphylococcus aureus, read-out: MIC50
[22] = Staphylococcus aureus, read-out: MIC90
[23] = Staphylococcus aureus, read-out: Modal MIC (most frequent MIC)

With `C[C@H](N)C(=O)N[C@@H](C)P(=O)(O)O` [Alafosfalin, L-alanyl-L-1-aminoethylphosphonic acid] the “activity relative to fosfomycin” value ([1]; E. cloacae) was roughly 32 times, the “MIC Range” value ([1]; E. cloacae (27)) was 0.125 to 4 µg/mL and the “concentration by which all the isolates were inhibited” value ([1]; E. cloacae isolates (n=27)) was 4 µg/mL. The MIC50 ([1]; Enterobacter cloacae, E. cloacae (27), read-out: MIC50) was 1 µg/mL (≈ 5.1 µM), the MIC90 ([1]; Enterobacter cloacae, E. cloacae (27), read-out: MIC90) was 1 µg/mL (≈ 5.1 µM) and the MIC ([1]; Enterobacter cloacae, E. cloacae (27), read-out: Modal MIC (most frequent MIC)) was 1 µg/mL (≈ 5.1 µM). The “concentration to which all the isolates were sensitive” value [2] was no more than 4 µg/mL, the MIC50 [3] was 1 µg/mL (≈ 5.1 µM) and the MIC90 [3] was 4 µg/mL (≈ 20.4 µM). For the same molecule, the MIC [3, 20] was 2 µg/mL (≈ 10.2 µM), the MIC50 ([4]; read-out: MIC50) was 2 µg/mL (≈ 10.2 µM) and the MIC90 ([4]; read-out: MIC90) was greater than 8 µg/mL. It also gave an MIC [4, 20] of 2 µg/mL (≈ 10.2 µM), an MIC50 [5] of 2 µg/mL (≈ 10.2 µM) and an MIC90 [5] greater than 8 µg/mL. For the same molecule, the MIC [5, 20] was 2 µg/mL (≈ 10.2 µM), the “concentration to which all the isolates were sensitive” value [6] was no more than 4 µg/mL and the “concentration to which all the isolates were sensitive” value [7] was no more than 4 µg/mL. The MIC50 [8] was 4 µg/mL (≈ 20.4 µM), the MIC90 [8] was greater than 8 µg/mL and the MIC [8, 20] was greater than 8 µg/mL. The MIC [9] was greater than 8 µg/mL, the MIC [10] was no less than 8 µg/mL and the MIC50 ([11]; read-out: MIC50) was 16 µg/mL (≈ 81.6 µM). The MIC90 ([11]; read-out: MIC90) was greater than 32 µg/mL, the MIC [11, 20] was 8 µg/mL (≈ 40.8 µM) and the “MIC Range” value [12] was 0.25 to 16 µg/mL. For the same molecule, the MIC50 [12, 21] was 4 µg/mL (≈ 20.4 µM), the MIC90 [12, 22] was 8 µg/mL (≈ 40.8 µM) and the MIC [12, 23] was 4 µg/mL (≈ 20.4 µM). It also gave an MIC50 [13] of 16 µg/mL (≈ 81.6 µM), an MIC90 [13] greater than 32 µg/mL and an MIC [13, 20] of 16 µg/mL (≈ 81.6 µM). For the same molecule, the MIC90 ([14]; MRSA (37)) was 8 µg/mL (≈ 40.8 µM), the “MIC Range” value ([14]; MRSA (37)) was 0.125 to 16 µg/mL and the MIC50 ([14]; Staphylococcus aureus, MRSA) was 4 µg/mL (≈ 20.4 µM). For the same molecule, the MIC90 ([14]; Staphylococcus aureus, MRSA) was 8 µg/mL (≈ 40.8 µM), the MIC ([14]; Staphylococcus aureus, MRSA, read-out: Modal MIC (most frequent MIC)) was 4 µg/mL (≈ 20.4 µM) and the MIC50 ([15]; read-out: MIC50) was 8 µg/mL (≈ 40.8 µM). For the same molecule, the MIC90 ([15]; read-out: MIC90) was 32 µg/mL (≈ 163 µM), the MIC [15, 20] was 8 µg/mL (≈ 40.8 µM) and the “concentration to which all the isolates were sensitive” value [16] was no more than 4 µg/mL. For the same molecule, the “concentration by which all isolates were inhibited” value ([17]; 34 E. faecium isolates (including 31 vancomycin-resistant)) was 32 µg/mL, the “MIC Range” value ([17]; E. faecium (34)) was 4 to 32 µg/mL and the MIC50 ([17]; Enterococcus faecium, E. faecium (34), read-out: MIC50) was 16 µg/mL (≈ 81.6 µM). For the same molecule, the MIC90 ([17]; Enterococcus faecium, E. faecium (34), read-out: MIC90) was 16 µg/mL (≈ 81.6 µM), the MIC ([17]; Enterococcus faecium, E. faecium (34), read-out: Modal MIC (most frequent MIC)) was 16 µg/mL (≈ 81.6 µM) and the “concentration by which growth of all the isolates was inhibited” value ([18]; 53 isolates of E. coli) was 2 µg/mL. For the same molecule, the “activity relative to that of fosfomycin” value ([18]; E. coli) was “approximately four”, the “MIC Range” value ([18]; E. coli (53)) was ≤0.031-2 ^ μg/mL and the MIC50 ([18]; Escherichia coli, E. coli (53), read-out: MIC50) was 0.125 µg/mL (≈ 0.637 µM). For the same molecule, the MIC90 ([18]; Escherichia coli, E. coli (53), read-out: MIC90) was 0.25 µg/mL (≈ 1.27 µM), the MIC ([18]; Escherichia coli, E. coli (53), read-out: Modal MIC (most frequent MIC)) was 0.063 µg/mL (≈ 0.321 µM) and the “MIC Range” value [19] was 0.125 to 16 µg/mL. It also gave an MIC50 [19, 21] of 4 µg/mL (≈ 20.4 µM), an MIC90 [19, 22] of 8 µg/mL (≈ 40.8 µM) and an MIC [19, 23] of 4 µg/mL (≈ 20.4 µM).
